# Biological target: T1, glucosylceramide synthase (Homo sapiens, UniProt Q16739)
# T1 construct: made in house; host or cells: Expi293F cells (transient expression, pcDNA3.3-TOPO vector); microsome fraction used as enzyme source
# T1 sequence (Q16739 1-394): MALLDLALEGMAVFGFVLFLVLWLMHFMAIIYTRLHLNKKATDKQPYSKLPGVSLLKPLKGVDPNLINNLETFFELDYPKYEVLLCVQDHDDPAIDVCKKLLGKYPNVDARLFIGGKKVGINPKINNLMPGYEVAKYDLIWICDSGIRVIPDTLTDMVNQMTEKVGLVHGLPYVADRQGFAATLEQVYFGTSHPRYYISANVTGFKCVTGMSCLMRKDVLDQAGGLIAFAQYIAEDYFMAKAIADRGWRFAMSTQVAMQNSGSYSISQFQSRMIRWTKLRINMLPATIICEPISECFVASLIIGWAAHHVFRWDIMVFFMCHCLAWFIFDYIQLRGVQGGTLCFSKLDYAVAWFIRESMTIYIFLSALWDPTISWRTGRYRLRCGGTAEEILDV
# Test: Glucosylceramide synthase (GCS) enzyme assay, microsome fraction, C8 glucosylceramide quantified by Rapidfire MS/MS
# Assay type: biochemical
# Details: test compound 10 μM; 1.7 μM UDP-glucose, 3 μM C8 ceramide; room temperature 60 min
# In short: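 Test compound, 10 μM final, was run against human GCS from transfected Expi293F microsome fractions, using substrate solution of 6 μM C8 ceramide (in DOPC liposomes) plus 3.4 μM UDP-glucose, pH 7.5 Tris buffer, 60 min, room temperature. Product C8 glucosylceramide measured by Rapidfire MS/MS against an internal standard, % inhibition referenced to no-enzyme and DMSO wells.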
row,GCS enzyme inhibitory rate at 10 μM (%) (% of control),Compound
1,98%,"O=C1c2ccnc(-c3ccc(F)cc3OCC(F)(F)F)c2CN1c1ccc(C2(O)CCOC2)cc1 (single isomer, unassigned) [Example 263, (R or S)-4-[4-fluoro-2-(2,2,2-trifluoroethoxy)phenyl]-2-[4-(3-hydroxyoxolan-3-yl)phenyl]-2,3-dihydro-1H-pyrrolo[3,4-c]pyridin-1-one]"

# Same assay, conditions: test compound 10 μM; 1.7 μM UDP-glucose, 3 μM C8 ceramide; room temperature 60 min; read-out: GCS enzyme inhibitory rate at 10 μM (%) (% of control)
row,inhibition at 10 µM,Compound
1,61%,"CN(C)C(=O)c1ccc(N2Cc3cnn(-c4ccc(F)cc4OCC(F)(F)F)c3C2)nc1 [Example 231, 6-{1-[4-fluoro-2-(2,2,2-trifluoroethoxy)phenyl]-4,6-dihydropyrrolo[3,4-c]pyrazol-5(1H)-yl}-N,N-dimethylpyridine-3-carboxamide]"
2,70%,"CC(=O)N1CC(O)(c2ccc(N3Cc4c(ccnc4-c4ccccc4OCC(F)(F)F)C3=O)cc2)C1 [Example 258, 2-[4-(1-acetyl-3-hydroxyazetidin-3-yl)phenyl]-4-[2-(2,2,2-trifluoroethoxy)phenyl]-2,3-dihydro-1H-pyrrolo[3,4-c]pyridin-1-one]"
3,93%,"COc1ccccc1-c1nccc2c1CN(c1ccc(C(F)(F)F)cn1)C2=O [Example 32, 4-(2-methoxyphenyl)-2-[5-(trifluoromethyl)pyridin-2-yl]-2,3-dihydro-1H-pyrrolo[3,4-c]pyridin-1-one]"
4,67%,"O=C1c2ccnc(-c3ccc(F)cc3OC(F)F)c2CN1c1ccc(F)cn1 [Example 52, 4-[2-(difluoromethoxy)-4-fluorophenyl]-2-(5-fluoropyridin-2-yl)-2,3-dihydro-1H-pyrrolo[3,4-c]pyridin-1-one]"
5,99%,"O=C1c2cc(C3CCCOC3)nc(-c3ccc(F)cc3OCC(F)(F)F)c2CN1c1ccc(F)cc1 (racemic) [Example 386, rac-2-(4-fluorophenyl)-4-[4-fluoro-2-(2,2,2-trifluoroethoxy)phenyl]-6-(oxan-3-yl)-2,3-dihydro-1H-pyrrolo[3,4-c]pyridin-1-one]"
6,100%,"CC(C)(O)c1cc2c(c(-c3ccccc3OCC(F)F)n1)CN(c1ccc(C(F)F)cc1)C2=O [Example 357, 4-[2-(2,2-difluoroethoxy)phenyl]-2-[4-(difluoromethyl)phenyl]-6-(2-hydroxypropan-2-yl)-2,3-dihydro-1H-pyrrolo[3,4-c] pyridin-1-one]"
7,96%,"CC(C)n1cc(N2Cc3c(ccnc3-c3ccc(F)cc3OCC(F)(F)F)C2=O)cn1 [Example 97, 4-[4-fluoro-2-(2,2,2-trifluoroethoxy)phenyl]-2-[1-(propan-2-yl)-1H-pyrazol-4-yl]-2,3-dihydro-1H-pyrrolo[3,4-c]pyridin-1-one]"
8,93%,"COc1ccccc1-c1nccc2c1CN(c1ccc(OC(F)F)nc1)C2=O [Example 27, 2-[6-(difluoromethoxy)pyridin-3-yl]-4-(2-methoxyphenyl)-2,3-dihydro-1H-pyrrolo[3,4-c]pyridin-1-one]"
9,98%,"CN(C)C(=O)c1ccc(N2Cc3cnn(-c4ccccc4OCC(F)(F)F)c3C2)cc1 [Example 217, N,N-dimethyl-4-{1-[2-(2,2,2-trifluoroethoxy)phenyl]-4,6-dihydropyrrolo[3,4-c]pyrazol-5(1H)-yl}benzamide]"
10,100%,"O=C1c2ccnc(-c3ccc(F)cc3OCC3(F)COC3)c2CN1c1ccc(OC(F)F)cc1 [Example 127, 2-[4-(difluoromethoxy)phenyl]-4-{4-fluoro-2-[(3-fluorooxetan-3-yl)methoxy]phenyl}-2,3-dihydro-1H-pyrrolo[3,4-c]pyridin-1-one]"
11,93%,"O=C(C1CC1)N1CC(O)(c2ccc(N3Cc4c(ccnc4-c4ccccc4OCC(F)(F)F)C3=O)cc2)C1 [Example 261, 2-{4-[1-(cyclopropanecarbonyl)-3-hydroxyazetidin-3-yl]phenyl}-4-[2-(2,2,2-trifluoroethoxy)phenyl]-2,3-dihydro-1H-pyrrolo[3,4-c]pyridin-1-one]"
12,97%,"O=C1c2ccnc(-c3ccccc3OCC(F)(F)F)c2CN1c1cnn(CC2(F)COC2)c1 [Example 247, 2-{1-[(3-fluorooxetan-3-yl)methyl]-1H-pyrazol-4-yl}-4-[2-(2,2,2-trifluoroethoxy)phenyl]-2,3-dihydro-1H-pyrrolo[3,4-c]pyridin-1-one]"
13,78%,"COc1ccccc1-c1nccc2c1CN(c1ccc(F)cc1)C2=O [Example 1, 2-(4-fluorophenyl)-4-(2-methoxyphenyl)-2,3-dihydro-1H-pyrrolo[3,4-c]pyridin-1-one]"
14,86%,"Cn1cc(N2Cc3c(ccnc3-c3ccc(F)cc3OCC(F)(F)F)C2=O)cn1 [Example 81, 4-[4-fluoro-2-(2,2,2-trifluoroethoxy)phenyl]-2-(1-methyl-1H-pyrazol-4-yl)-2,3-dihydro-1H-pyrrolo[3,4-c]pyridin-1-one]"
15,53%,"N#Cc1ccc(N2Cc3c(ccnc3-c3ccc(F)cc3OC(F)F)C2=O)nc1 [Example 70, 6-{4-[2-(difluoromethoxy)-4-fluorophenyl]-1-oxo-1,3-dihydro-2H-pyrrolo[3,4-c]pyridin-2-yl}pyridine-3-carbonitrile]"
16,79%,"O=C1c2ccnc(-c3ccc(F)cc3OCc3ccccc3)c2CN1c1ccc(OC(F)F)nc1 [Example 101, 4-[2-(benzyloxy)-4-fluorophenyl]-2-[6-(difluoromethoxy)pyridin-3-yl]-2,3-dihydro-1H-pyrrolo[3,4-c]pyridin-1-one]"
17,99%,"N#CC1(c2ccc(N3Cc4c(ccnc4-c4ccccc4OCC(F)F)C3=O)cc2)CC1 [Example 304, 1-(4-{4-[2-(2,2-difluoroethoxy)phenyl]-1-oxo-1,3-dihydro-2H-pyrrolo[3,4-c]pyridin-2-yl}phenyl) cyclopropane-1-carbonitrile]"
18,94%,"CC(C)(O)c1ccc(N2Cc3c(ccnc3-c3ccncc3OCC(F)(F)F)C2=O)nc1 [Example 275, 2-[5-(2-hydroxypropan-2-yl)pyridin-2-yl]-4-[3-(2,2,2-trifluoroethoxy)pyridin-4-yl]-2,3-dihydro-1H-pyrrolo [3,4-c]pyridin-1-one]"
19,100%,"CC(C)(O)COc1ccc(N2Cc3c(cn(C4CC4)c(=O)c3-c3ccccc3OCC(F)(F)F)C2=O)cc1 [Example 372, 5-cyclopropyl-2-[4-(2-hydroxy-2-methylpropoxy)phenyl]-7-[2-(2,2,2-trifluoroethoxy)phenyl]-1H-pyrrolo[3,4-c]pyridine-3,6(2H,5H)-dione]"
20,100%,"Cc1cc2c(c(-c3ccccc3OCC(F)(F)F)n1)CN(c1ccc(C(F)(F)C(C)(C)O)cc1)C2=O [Example 342, 2-[4-(1,1-difluoro-2-hydroxy-2-methylpropyl)phenyl]-6-methyl-4-[2-(2,2,2-trifluoroethoxy)phenyl]-2,3-dihydro-1H-pyrrolo [3,4-c]pyridin-1-one]"
21,100%,"CC(C)(O)c1ccc(N2Cc3c(cc(C(F)F)nc3-c3ccccc3OCC(F)(F)F)C2=O)cn1 [Example 328, 6-(difluoromethyl)-2-[6-(2-hydroxypropan-2-yl)pyridin-3-yl]-4-[2-(2,2,2-trifluoroethoxy)phenyl]-2,3-dihydro-1H-pyrrolo[3,4-c]pyridin-1-one]"
22,98%,"O=C1c2ccnc(-c3ccc(F)cc3OCC(F)(F)F)c2CN1c1ccc(C2(O)CCOC2)cn1 (single isomer, unassigned) [Example 300, (R or S)-4-[4-fluoro-2-(2,2,2-trifluoroethoxy)phenyl]-2-[5-(3-hydroxyoxolan-3-yl)pyridin-2-yl]-2,3-dihydro-1H-pyrrolo [3,4-c]pyridin-1-one]"
23,77%,"COc1cccc(F)c1-c1nccc2c1CN(c1ccc(F)cc1)C2=O [Example 142, 4-(2-fluoro-6-methoxyphenyl)-2-(4-fluorophenyl)-2,3-dihydro-1H-pyrrolo[3,4-c]pyridin-1-one]"
24,97%,"O=C1c2ccnc(-c3ccc(F)cc3OCC3COC3)c2CN1c1ccc(OC(F)F)cc1 [Example 126, 2-[4-(difluoromethoxy)phenyl]-4-{4-fluoro-2-[(oxetan-3-yl)methoxy]phenyl}-2,3-dihydro-1H-pyrrolo[3,4-c]pyridin-1-one]"
25,67%,"O=C1c2ccnc(-c3ccc(F)cc3OC(F)F)c2CN1c1ccc(OC(F)F)cn1 [Example 53, 4-[2-(difluoromethoxy)-4-fluorophenyl]-2-[5-(difluoromethoxy)pyridin-2-yl]-2,3-dihydro-1H-pyrrolo[3,4-c]pyridin-1-one]"
26,100%,"Cn1cc2c(c(-c3ccccc3OCC(F)(F)F)c1=O)CN(c1ccc(OCC(C)(C)O)cc1)C2=O [Example 350, 2-[4-(2-hydroxy-2-methylpropoxy)phenyl]-5-methyl-7-[2-(2,2,2-trifluoroethoxy)phenyl]-1H-pyrrolo[3,4-c]pyridine-3,6(2H,5H)-dione]"
27,100%,"Cn1cc2c(c(-c3ccccc3OCC(F)(F)F)c1=O)CN(c1ccc(C(C)(C)O)cc1)C2=O [Example 321, 2-[4-(2-hydroxypropan-2-yl)phenyl]-5-methyl-7-[2-(2,2,2-trifluoroethoxy)phenyl]-1H-pyrrolo[3,4-c]pyridine-3,6(2H,5H)-dione]"

# Source: patent US12528802B2, “Heterocyclic compound” (Takeda Pharmaceutical Company Limited, priority 2019, dated 2026)
